Reference: patent US20100152275A1, “Drug or Supplement Combination with Conjugated Linoleic Acid for Fat Loss in Mammals” (Kaloness, Inc., priority 2008, published 2010)
Where two headings read alike, the source gives them in different places.

How the values were obtained:
MCP-1 mRNA = MCP-1 mRNA by real time PCR in 3T3-L1 adipocytes; type: cell-based, Mouse; settings: 12 hrs
Method: CLA has been reported to cause inflammation which is considered a non-healthy condition. […] Metformin or AICAR was used in combination with t10c12 CLA in the media containing the adipocytes for 12 hrs. RNA was isolated and the inflammatory response, as measured by MCP-1 (an inflammatory cytokine) mRNA levels, was determined by real time PCR of the reverse transcribed RNA.

3T3-L1 adipocytes [1] = test: Triglyceride levels (delipidation) in 3T3-L1 adipocytes; type: cell-based, Mouse; settings: for reduced triglyceride levels by, relative to the linoleic acid control: Example 15, CLA 50 uM; for TG levels: differentiated 3T3-L1 adipocytes, alone or combined with t10c12 CLA
Method: Two well known AMPK activators with very different chemical structures are metformin and AICAR. Metformin is from the class of biguanides while AICAR is a ribonucleoside analog that is phosphorylated in the cell to form ZMP, an AMP mimetic. […] A lower 50 μM level of t10c12 CLA was used in the experiment to better measure any effects of the combinations.
We recognize the complex medical effects and dangers of ATRA, retinoids, or rexinoids, has limited their therapeutic use in humans.
We tested the role of PPARβ/δ with the use of GW0742, a PPARβ/δ agonist.
Activating ligands include hydroxysterols such as 24(S)-Hydroxycholesterol or 24(S),25-epoxycholesterol.
We treated 3T3-L1 adipocytes with control or CLA fatty acids, with or without a statin drug.

AMPK = AMPK phosphorylation in 3T3-L1 adipocytes, western blot; type: cell-based, Mouse; settings: for Phospho-AMPK Amount: 3T3-L1 adipocytes, LA = 1
Method: (§3) The level of phosphorylated AMPK and acetyl CoA carboxylase (ACC), one of AMPK's known in vivo substrates, was measured at various times after treating 3T3-L1 adipocytes with either 100 uM linoleic acid or trans-10, cis-12 CLA (t10c12 CLA). […] The total amounts of AMPK and ACC were also determined with antibodies that recognize the respective proteins regardless of phosphorylation status.
(§4) The phosphorylation levels of AMPK and ACC were then determined after treating 3T3-L1 adipocytes with either metformin, AICAR, or t10c12 CLA alone or in combination.

[2] = 14 d feeding trial of t10c12 CLA and metformin in ML mice; type: in vivo; settings: for fat pad weights relative to control untreated mice: 0.25% CLA, either dose of metformin; for change in body weight (BW) / final weight of the epididymal (EPI) / final weight of the retroperitoneal (RP): mean ± SEM
Method: (§1) FIG. 1. […] Forty-two MC and 42 mL mice were fed diets containing soy oil or soy oil with 0.25% t10c12 CLA and drinking water containing either none, 0.33 mg/ml, or 3.33 mg/ml metformin (Met) for 14 days (n=6 mice per treatment). A positive control diet contained the standard amount of 0.5% t10c12 CLA without any metformin. Body weights were recorded and retroperitoneal (RP) and epididymal fat pads from all the mice were isolated and weighed.

[3] = 14 d feeding trial of t10c12 CLA and metformin in MC mice; type: in vivo; settings: mean ± SEM
Method: as §1

WAT of mice = test: Microarray analysis of WAT of mice fed t10c12 CLA; type: in vivo
Text: Recent microarray analyses of the WAT of mice fed t10c12 CLA by our laboratory and others found three major trends. […] This initial inflammatory response is transient: the expression levels of many of these genes returns to normal levels following the first week of treatment, and the remaining genes are expressed at lower levels than the initial response. […] In particular, carnitine palmitoyltransferase I (CPT1), uncoupling protein 1 (UCP1), and uncoupling protein 2 (UCP2) show increases. The response in UCP1 and UCP2 genes is quite strong, as the levels of the induced mRNAs are in the 95th and 90th percentiles of the most abundant mRNAs in the adipocyte, respectively. UCP1 is usually exclusively expressed in brown adipose tissue, so this is a remarkable change in expression pattern with likely physiological effects. There is not a consensus that increased metabolic heat output occurs in t10c12 CLA treatments, but this increased metabolism has been observed in some studies.

3T3-L1 fibroblasts = test: Integrated stress response (ISR) in 3T3-L1 fibroblasts, microarray; type: cell-based, Mouse; settings: 3T3-L1 fibroblasts prior to differentiation
Text: (§2) We have microarray analyses of 3T3-L1 fibroblasts prior to differentiation and from liver tissues in mice treated with t10c12 CLA that support the hypothesis that t10c12 CLA is selective in the types of cells responding. The ISR is a cell response that most cells are capable of inducing and is a key part of the response to t10c12 CLA [5, 19].

liver tissues = test: Microarray analysis of liver tissues of mice treated with t10c12 CLA; type: in vivo
Text: as §2

[4] = system: acetyl CoA carboxylase (ACC); settings: for Phospho-ACC amount: 3T3-L1 adipocytes, LA = 1
Method: as §3, §4

adipocytes = test: Inflammatory response to phenformin in adipocytes; type: cell-based; settings: compared with metformin
[5] = reference [18]; cited from earlier work
3T3-L1 adipocytes [6] = test: Microarray gene expression changes in 3T3-L1 adipocytes; type: cell-based, Mouse; settings: compared with t10c12 CLA, data not shown
[7] = 100 uM, from 30 min, persisted 16 hr, vs linoleic acid

## NC(=O)c1ncn([C@@H]2O[C@H](CO)[C@@H](O)[C@H]2O)c1N [AICAR, aminoimidazole carboxamide ribonucleotide, reference compound]
MCP-1 mRNA
  MCP-1 induction relative to the LA control: neither metformin nor AICAR alone produced a significant induction

## CC[C@H](C)C(=O)O[C@H]1CCC=C2C=C[C@H](C)[C@H](CC[C@@H]3C[C@@H](O)CC(=O)O3)[C@H]21 [mevastatin, Mevastatin]
3T3-L1 adipocytes [1]
  reduced triglyceride levels by, relative to the linoleic acid control: 10%

## CCCCC/C=C\C=C\CCCCCCCCC(=O)O [CLA, trans-10, cis-12 CLA]
AMPK; 100 uM, 16 hr experiment
  total amount of AMPK: remained constant
AMPK; [7]
  level of phosphorylated AMPK: increased levels
AMPK; 2 hr
  Phospho-AMPK Amount: 6.0
AMPK; 8 hr
  Phospho-AMPK Amount: 1.7
3T3-L1 adipocytes [1]; Example 2, CLA alone, vs LA control
  reduction in triglyceride levels: 50%
3T3-L1 adipocytes [1]
  reduced triglyceride levels by, relative to the linoleic acid control: 25%
MCP-1 mRNA
  MCP-1 induction relative to the LA control: 23 fold
MCP-1 mRNA; LA = 1
  MCP-1 mRNA levels: 23
[2]
  fat pad weights relative to control untreated mice: no significant change
[2]; Met0 (no metformin), 14 d
  change in body weight (BW): 1.89 ± 0.95 g
[2]; Met0, 14 d
  final weight of the epididymal (EPI): 0.89 ± 0.17 g
  final weight of the retroperitoneal (RP): 0.27 ± 0.08 g
[3]; Met0, 14 d
  change in body weight (BW): 1.42 ± 0.46 g
  final weight of the epididymal (EPI): 0.31 ± 0.07 g
  final weight of the retroperitoneal (RP): 0.1 ± 0.01 g
WAT of mice; WAT of mice fed t10c12 CLA
  UCP1 induced mRNA level, percentile of the most abundant mRNAs in the adipocyte: 95 percentile
  UCP2 induced mRNA level, percentile of the most abundant mRNAs in the adipocyte: 90 percentile
  expression of key adipocyte lipid-related genes: reduced expression
  mRNA levels of key fatty acid oxidation genes (CPT1, UCP1, UCP2): increased mRNA levels
WAT of mice; first several days of dietary t10c12 CLA, transient
  inflammatory response (Cox2, cytokines): induce an inflammatory response
3T3-L1 fibroblasts
  ISR response: do not show this response
Liver tissues; compared with adipose tissue
  ISR in liver: weak ISR
Liver tissues; mice treated with t10c12 CLA
  delipidation or inflammatory response in liver: lacked a significant delipidation or inflammatory response
[4]; 100 uM, 16 hr experiment
  total amount of ACC: remained constant
[4]; [7]
  level of phosphorylated ACC: increased levels
[4]; 2 hr
  Phospho-ACC amount: 4.1
[4]; 8 hr
  Phospho-ACC amount: 3.3

## Cc1cc(SCc2sc(-c3ccc(C(F)(F)F)c(F)c3)nc2C)ccc1OCC(=O)O [GW0742]
3T3-L1 adipocytes [1]
  TG levels: little effect on TG levels

## [H]/N=C(/N)N/C(=N/[H])NCCc1ccccc1 [Phenformin]
AMPK; compared with metformin
  p-AMPK levels: higher p-AMPK levels
3T3-L1 adipocytes [1]; Example 9
  delipidation: sufficient for the type of strong delipidation observed with t10c12 CLA treatments
adipocytes
  inflammatory response: stronger than that observed with metformin
[5]
  lactic acidosis: can cause toxic lactic acidosis

## CC1=C(/C=C/C(C)=C/C=C/C(C)=C/C(=O)O)C(C)(C)CCC1 [ATRA, All trans retinoic acid]
3T3-L1 adipocytes [1]
  TG levels: increased amounts of TG

## c1cc(-c2cnn3cc(-c4ccc(OCCN5CCCCC5)cc4)cnc23)ccn1 [compound C, reference compound]
AMPK; Example 2, western blot
  phosphorylation of AMPK: inhibited
[4]; Example 2, western blot
  phosphorylation of Acetyl-Coenzyme A Carboxylase (ACC): inhibited

## CN(C)C(=N)N=C(N)N [Metformin]
MCP-1 mRNA
  MCP-1 induction relative to the LA control: neither metformin nor AICAR alone produced a significant induction
3T3-L1 adipocytes [6]
  induction of inflammatory genes (CD14, Clcf1, Cox2, Csf1, MCP-1, Osmr, PAI, SOCS3): lower levels of induction
[2]
  fat pad weights relative to control untreated mice: increased fat pad weights
[2]; Met2 (2 mmol/L), 14 d
  final weight of the epididymal (EPI): 1.06 ± 0.13 g
  final weight of the retroperitoneal (RP): 0.37 ± 0.1 g
[2]; Met2 (metformin 2 mmol/L drinking water), 14 d
  change in body weight (BW): 2.89 ± 1 g
[2]; Met20 (20 mmol/L), 14 d
  final weight of the epididymal (EPI): 1.08 ± 0.12 g
  final weight of the retroperitoneal (RP): 0.33 ± 0.06 g
[2]; Met20 (metformin 20 mmol/L drinking water), 14 d
  change in body weight (BW): 2.54 ± 0.51 g
[3]; Met2 (2 mmol/L), 14 d
  change in body weight (BW): 1.96 ± 0.9 g
  final weight of the epididymal (EPI): 0.59 ± 0.07 g
  final weight of the retroperitoneal (RP): 0.23 ± 0.04 g
[3]; Met20 (20 mmol/L), 14 d
  change in body weight (BW): 2.82 ± 0.96 g
  final weight of the epididymal (EPI): 0.48 ± 0.09 g
  final weight of the retroperitoneal (RP): 0.23 ± 0.06 g

## C[C@H](CC[C@@H]1OC1(C)C)[C@H]1CC[C@H]2[C@@H]3CC=C4C[C@@H](O)CC[C@]4(C)[C@H]3CC[C@]12C [24(S),25-epoxycholesterol]
3T3-L1 adipocytes [1]
  TG levels: did not reduce TG levels

## CC1=C(/C=C/C(C)=C/C=C/C(C)=C/CO)C(C)(C)CCC1 [vitamin A, retinol]
3T3-L1 adipocytes [1]
  TG levels: little impact

## CC(C)[C@@H](O)CC[C@@H](C)[C@H]1CC[C@H]2[C@@H]3CC=C4C[C@@H](O)CC[C@]4(C)[C@H]3CC[C@]12C [24(S)-Hydroxycholesterol]
3T3-L1 adipocytes [1]
  TG levels: did not reduce TG levels
